# In paper PMC6273373, “Elucidation of Transport Mechanism of Paeoniflorin and the Influence of Ligustilide, Senkyunolide I and Senkyunolide A on Paeoniflorin Transport through Mdck-Mdr1 Cells as Blood–Brain Barrier in Vitro Model” (Molecules, 2016):
# Key:
# [1] = test system: P-gp; assay: Western blot of P-gp expression in MDCK-MDR1 cells; format: cell-based, canine; conditions: 8 hours
# Protocol: Cells treated with different concentrations of LIG, SENA and SENI for 8 hours were subject to Western blot assay. Proteins were extracted from whole cell lysates and separated by sodium dodecyl sulfate–polyacrylamide gel electrophoresis, then transferred to a polyvinylidene fluoride (PVDF) membrane. The following primary antibodies were used: rabbit anti-P-gp (1:1000; Abcam, Cambridge, MA, USA) and mouse anti-β-actin (1:2000; Abcam). Membranes were then incubated with the horseradish peroxidase-conjugated secondary anti-bodies (1:5000; Abcam). The transferred proteins were incubated with enhanced chemiluminescence (ECL) substrate solution and visualized with the Image J program (Bio-Rad, Richmond, CA, USA). The relative levels were quantified densitometrically by using the Quantity One software (Bio-Rad Laboratories) and calculated according to the reference bands of β-actin.
# [2] = test system: MDCK-MDR1 cell monolayers; assay: Transport of PF across MDCK-MDR1 cell monolayers (BBB in vitro model), LC-MS/MS; format: in vitro ADME, canine
# Protocol: (§1) Cell monolayers were pre-incubated in Hank's buffered salt solution (HBSS, pH 7.4) for 30 min at 37 °C. Transepithelial electrical resistance (TEER) values were measured across the monolayers using a Millipore Millicell ERS system equipped with chopstick electrodes (Millipore Corporation, Billerica, MA, USA). […] To measure apical (A)→basolateral (B) transporter, 0.5 mL of drug solution was added in A side and 1.5 mL of HBSS in B side. Basolateral (B)→apical (A) transporter was evaluated adding 1.5 mL of drug solution in B side and 0.5 mL of HBSS in A side. […] Each measurement was evaluated in triplicate. Cells were incubated in a 37 °C shaking incubator. […] The supernatants were transferred to autosampler vials and injected into the LC-MS system. An HPLC system consisting of a solvent-delivery system […], an autosampler SIL-30 AC, a column oven CTO-30 AC, a solvent degasser DGU-20A3 and a controller CBM-20A from […] was used in the study. Separation was conducted using a Phenomenex Kinetex NB-C18 (100 × 3.0 mm, 2.6 μm, Torrance, CA, USA). The column oven was maintained at 30 °C. The mobile phase was water as mobile phase A and acetonitrile as mobile phase B. […] The injection volume was set at 5 μL. The MS analysis was performed on a 4500 QTRAPTM system from Applied Biosystems (AB Sciex) equipped with Turbo V sources and Turbo IonsprayTM interface. Electrospray ionization was performed in negative mode. The mass spectrometric parameters were optimized as: Turbo Ion Spray (TIS) temperature, 650 °C; ion spray voltage, -4500 V; curtain gas, nitrogen, 30; nebulizing gas, 50; TIS gas, 50; declustering potential, -130 eV for PF, 0 eV for internal standard (IS, gastrodin); collision energy, -30 eV for PF, -35 eV for IS. […] Analyst SoftwareTM (version 1.6.1) was used to process the obtained data. […] The efflux ratio (ER) was calculated according to the following Equation (4): (4) […]→BL
# [3] = test system: MDCK-MDR1 monolayers; assay: Transepithelial electrical resistance (TEER) before and after permeation; format: cell-based, canine; conditions: after versus before permeation
# Protocol: Cell monolayers were pre-incubated in Hank’s buffered salt solution (HBSS, pH 7.4) for 30 min at 37 °C. Transepithelial electrical resistance (TEER) values were measured across the monolayers using a Millipore Millicell ERS system equipped with chopstick electrodes (Millipore Corporation, Billerica, MA, USA). Approximate MDCK-MDR1 values ranged from 500 to 800 Ω·cm^2. To measure apical (A)→basolateral (B) transporter, 0.5 mL of drug solution was added in A side and 1.5 mL of HBSS in B side. Basolateral (B)→apical (A) transporter was evaluated adding 1.5 mL of drug solution in B side and 0.5 mL of HBSS in A side. […] Transepithelial electrical resistance (TEER) of the monolayers was measured with the EVOM instrument (Millipore Corporation). The TEER of untreated cells and cells treated with LIG, SENI and SENA was determined in HBSS before and after the experiment. The measured TEER before the experiment was set as 100% and all other values were calculated according to this.
# [4] = test system: P-gp; assay: Transport of PF across MDCK-MDR1 cell monolayers (BBB in vitro model), LC-MS/MS; format: in vitro ADME, canine; conditions: dog, MDCK-MDR1, pH 7.4, 400 μg/mL PF + verapamil (P-gp inhibitor), mean ± SD (n = 3)
# Protocol: as §1
# [5] = as above; format: in vitro ADME, canine; conditions: dog
# Protocol: as §1
# [6] = test system: P-gp (MDR1); assay: as above; format: in vitro ADME, canine; conditions: dog, MDCK-MDR1, pH 7.4
# Protocol: as §1
# [7] = enhancer 40 µg/mL with 400 µg/mL PF, versus PF alone
# [8] = enhancer 80 µg/mL with 400 µg/mL PF, versus PF alone
# [9] = enhancer 20 µg/mL with 400 µg/mL PF, versus PF alone
smiles,measurement,setting,value
"CCC/C=C1\OC(=O)C2=C1CCC=C2 [LIG, ligustilide]",P-gp expression versus control group,[1]; 20 μg/mL,significantly down-regulated
same,P-gp expression versus control group,[1]; 40 μg/mL,markedly down-regulated
same,P-gp expression versus control group,[1]; 80 μg/mL,markedly down-regulated
same,Effect on A→B transport (Papp/flux) of PF,[2]; [7],significantly increased
same,Effect on A→B transport (Papp/flux) of PF,[2]; [8],significantly increased
same,TEER change during permeation studies,[3]; 20 μg/mL with 400 μg/mL PF,significantly decreased
same,TEER change during permeation studies,[3]; 40 μg/mL with 400 μg/mL PF,markedly decreased
same,TEER change during permeation studies,[3]; 80 μg/mL with 400 μg/mL PF,markedly decreased
"C[C@@]12C[C@@]3(O)O[C@@H](O1)[C@]1(COC(=O)c4ccccc4)[C@H]3C[C@@]12O[C@@H]1O[C@H](CO)[C@@H](O)[C@H](O)[C@H]1O [PF, paeoniflorin]","Papp A→B at 150 min, 400 μg/mL",[4],0.707 ± 0.062 ×10⁻⁶ cm/s
same,"Papp A→B at 150 min, 400 μg/mL","[5]; MDCK-MDR1, pH 7.4, 400 μg/mL PF + 2.5 mmol/L EDTA-Na2, mean ± SD (n = 3)",2.74 ± 0.212 ×10⁻⁶ cm/s
same,"Papp A→B at 150 min, 100 μg/mL","[5]; MDCK-MDR1, pH 7.4, PF 100 μg/mL, MDCK-MDR1 monolayers, mean ± SD (n = 3)",0.697 ± 0.053 ×10⁻⁶ cm/s
same,"Papp A→B at 150 min, 200 μg/mL","[5]; MDCK-MDR1, pH 7.4, PF 200 μg/mL, MDCK-MDR1 monolayers, mean ± SD (n = 3)",0.691 ± 0.082 ×10⁻⁶ cm/s
same,"Papp A→B at 150 min, 400 μg/mL","[5]; MDCK-MDR1, pH 7.4, PF 400 μg/mL, MDCK-MDR1 monolayers, mean ± SD (n = 3)",0.587 ± 0.088 ×10⁻⁶ cm/s
same,"Papp A→B at 150 min, 600 μg/mL","[5]; MDCK-MDR1, pH 7.4, PF 600 μg/mL, MDCK-MDR1 monolayers, mean ± SD (n = 3)",0.666 ± 0.072 ×10⁻⁶ cm/s
same,"Papp A→B at 150 min, 800 μg/mL","[5]; MDCK-MDR1, pH 7.4, PF 800 μg/mL, MDCK-MDR1 monolayers, mean ± SD (n = 3)",0.705 ± 0.107 ×10⁻⁶ cm/s
same,Papp A→B at 150 min,"[5]; MDCK-MDR1, pH 7.4, PF 100-800 μg/mL, MDCK-MDR1 cells, read-out: Papp (A→B), range over tested concentrations",0.587 to 0.705 ×10⁻⁶ cm/s
same,"Papp B→A at 150 min, 100 μg/mL","[5]; pH 7.4, PF 100 μg/mL, MDCK-MDR1 monolayers, mean ± SD (n = 3)",1.55 ± 0.092 ×10⁻⁶ cm/s
same,"Papp B→A at 150 min, 200 μg/mL","[5]; pH 7.4, PF 200 μg/mL, MDCK-MDR1 monolayers, mean ± SD (n = 3)",1.48 ± 0.363 ×10⁻⁶ cm/s
same,"Papp B→A at 150 min, 400 μg/mL","[5]; pH 7.4, PF 400 μg/mL, MDCK-MDR1 monolayers, mean ± SD (n = 3)",1.3 ± 0.084 ×10⁻⁶ cm/s
same,"Papp B→A at 150 min, 600 μg/mL","[5]; pH 7.4, PF 600 μg/mL, MDCK-MDR1 monolayers, mean ± SD (n = 3)",1.44 ± 0.201 ×10⁻⁶ cm/s
same,"Papp B→A at 150 min, 800 μg/mL","[5]; pH 7.4, PF 800 μg/mL, MDCK-MDR1 monolayers, mean ± SD (n = 3)",1.42 ± 0.097 ×10⁻⁶ cm/s
same,Increase of Papp (A→B) of PF in comparison with the non-EDTA-Na2 added,[2]; 400 μg/mL PF with 2.5 mmol/L EDTA-Na2,about five
same,Increase of Papp (A→B) of PF in comparison with the non-verapamil added,[2]; 400 μg/mL PF with verapamil,about 1.2 fold
same,ER (B→A/A→B),"[2]; PF 600 μg/mL, MDCK-MDR1 monolayers",2.156
same,B→A/A→B permeability ER,"[2]; PF, all tested concentrations, MDCK-MDR1 cells",more than 2
same,"efflux ratio at 150 min, 100 μg/mL",[6],2.22
same,"efflux ratio at 150 min, 200 μg/mL",[6],2.13
same,"efflux ratio at 150 min, 400 μg/mL",[6],2.21
same,"efflux ratio at 150 min, 800 μg/mL",[6],2.01
"CCCCC1OC(=O)C2=C1CCC=C2 (stereo not shown) [SENA, senkyunolide A]",P-gp expression versus control group,[1]; 20 μg/mL,significantly down-regulated
same,P-gp expression versus control group,[1]; 40 μg/mL,markedly down-regulated
same,P-gp expression versus control group,[1]; 80 μg/mL,markedly down-regulated
same,Effect on A→B transport (Papp/flux) of PF,[2]; [9],significantly increased
same,Effect on A→B transport (Papp/flux) of PF,[2]; [7],significantly increased
same,Increase of the transport of PF,"[2]; enhancer 80 µg/mL with 400 µg/mL PF, A→B, versus PF alone",approximately 109%
same,Effect on A→B transport (Papp/flux) of PF,[2]; [8],significantly increased
same,TEER change during permeation studies,[3]; 20 μg/mL with 400 μg/mL PF,markedly decreased
same,TEER change during permeation studies,[3]; 40 μg/mL with 400 μg/mL PF,markedly decreased
same,TEER change during permeation studies,[3]; 80 μg/mL with 400 μg/mL PF,significantly decreased
"CCC/C=C1\OC(=O)C2=C1CC[C@H](O)[C@H]2O [SENI, senkyunolide I]",P-gp expression versus control group,[1]; 20 μg/mL,markedly down-regulated
same,P-gp expression versus control group,[1]; 40 μg/mL,markedly down-regulated
same,P-gp expression versus control group,[1]; 80 μg/mL,markedly down-regulated
same,Effect on A→B transport (Papp/flux) of PF,[2]; [9],significantly increased
same,Effect on A→B transport (Papp/flux) of PF,[2]; [7],significantly increased
same,Effect on A→B transport (Papp/flux) of PF,[2]; [8],significantly increased
same,TEER change during permeation studies,[3]; 80 μg/mL with 400 μg/mL PF,markedly decreased
